As a reminder, the % Inhibition is the relative decrease from the control value, in per cent. Lower therefore signals a weak effect.

Results on ten molecules are retold here after patent US4722922A, “Tetrapeptide amides in the treatment of hypertension” (priority 1985, dated 1988).

The target of one assay is T1, human renin (Homo sapiens, UniProt P00797).
T1 construct: human renin, isolated from kidneys, was obtained from the World Health Organization International Laboratory for Biological Standards; tissue World Health Organization International Laboratory for Biological Standards (National Institute for Biological Standards and Control, London, England); host or cells: human kidney
T1 sequence (P00797 67-406): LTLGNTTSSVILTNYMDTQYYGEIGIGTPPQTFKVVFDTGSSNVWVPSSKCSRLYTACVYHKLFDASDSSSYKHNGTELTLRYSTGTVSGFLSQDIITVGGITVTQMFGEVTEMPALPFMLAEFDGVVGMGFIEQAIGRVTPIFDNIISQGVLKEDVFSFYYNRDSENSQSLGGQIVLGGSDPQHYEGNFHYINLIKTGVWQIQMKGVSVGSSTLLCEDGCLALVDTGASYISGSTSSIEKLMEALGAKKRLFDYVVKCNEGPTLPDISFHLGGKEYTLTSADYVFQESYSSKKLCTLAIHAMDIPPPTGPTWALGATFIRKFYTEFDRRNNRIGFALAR
As to the kind of experiment: Inhibition of Human Renin (angiotensin I formation, radioimmunoassay). It is filed as biochemical. To be noted: for % Inhibition: human renin test, 0.1 mGU/ml human renin, human plasma, two-hour incubation at 37° C., pH 7.5, test compound concentration not given. The procedure: The renin inhibition activity of the compounds of this invention illustrated in the examples was tested by the following method.
Inhibition of Human Renin
International reference standard human renin, isolated from kidneys, was obtained from the World Health Organization International Laboratory for Biological Standards (National Institute for Biological Standards and Control, London, England). Renin activity is defined in "Goldblatt units" (GU), the quantity that, when injected directly into the blood stream of an unanesthetized dog, raises the direct mean femoral artery blood pressure by 30 mm Hg in about two minutes. E. Haas, L. Lewis, P. Scipione, and T. J. Koshy, Hypertension, 1, 112-117 (1979). Human angiotensinogen was used as an unisolated component of human blood plasma. The enzyme inhibition assay, see K. Poulsen, J. Burton, and E. Haber, Biochemistry, 12, 3877-3882 (1973), involved a two-hour incubation at 37° C. of the following final concentrations of reagents (0.25 ml total volume): 0.1 mGU/ml human renin; 0.05 ml human plasma; 6 mM disodium EDTA; 2.4 mM phenylmethylsulfonyl fluoride and 1.5 mM 8-hydroxyquinoline (angiotensinase inhibitors); 0.4 mg/ml bovine serum albumin; and 0.024 neomycin sulfate in 100 mM Tris-acetate buffer (pH 7.5). The enzymatic reaction was terminated by boiling the mixture for ten minutes. The quantity of angiotensin I formed was determined by radioimmunoassay, using the general method used in the angiotensin I radioimmunoassay kit of New England Nuclear.

Assay [1] relates to renal-ligated hypertensive rat. Nature of the assay: Renal-ligated Hypertensive Rat Assay. It counts as in vivo, Sprague Dawley rats. Particulars: renal-ligated rats. The procedure:
Renal-ligated Hypertensive Rat Assay
Male Sprague Dawley rats aged 11 to 15 weeks old were used in this test. […] Test compounds were administered intra-arterially at a dose of 10 mg per kg of body weight, and blood pressure changes were monitored directly at 5, 10, and 15 minutes after injection.

Structures can show the parent of a compound that is named as a salt. Non-standard residues stand in square brackets, D forms with d. Residues, ends and D or L forms follow the SMILES beside them. No end group written: not given here. *: point of attachment. dTyr(3-tBu) = CC(C)(C)c1cc(C[C@@H](N)C(=O)O)ccc1O; Tyr(3-tBu) = CC(C)(C)c1cc(C[C@H](N)C(=O)O)ccc1O; dMet(O2) = CS(=O)(=O)CC[C@@H](N)C(=O)O; Sta = CC(C)C[C@H](N)[C@@H](O)CC(=O)O; Isovaleryl = CC(C)CC(=O)*; Ahx = NCCCCCC(=O)O

In the case of “2,4-dimethyl-3-hydroxyphenylalanyl-D-methionylglycyl-N-(6-methoxy-6-oxohexyl)-L-phenylalaninamide monohydrochloride hemihydrate [Example 77]”, the “% Inhibition” value at human renin is recorded as 73%.
As to `COC(=O)CCCCCNC(=O)[C@H](Cc1ccccc1)NC(=O)CNC(=O)[C@@H](CCSC)NC(=O)[C@@H](N)Cc1ccc(OC(=O)OCC(C)C)c(C(C)(C)C)c1.Cl` (racemic) [Example 69, O-(2-methylpropoxycarbonyl)-3-t-butyl-tyrosyl-D-methionylglycyl-N-(6-methoxy-6-oxohexyl)-L-phenylalaninamide monohydrochloride], the “% Inhibition” value on human renin is listed as 43%.
On the same count and under the same terms, the value for `COC(=O)CCCCCNC(=O)[C@H](Cc1ccccc1)NC(=O)CNC(=O)[C@@H](CCS(C)(=O)=O)NC(=O)[C@@H](N)Cc1ccc(O)c(C(C)(C)C)c1` [Example 73, 3-t-butyl-L-tyrosyl-[4-(methylsulfonyl)-D-2-aminobutanoyl]glycyl-N-(6-methoxy-6-oxohexyl)-L-phenylalaninamide monohydrochloride hemihydrate] (H-[Tyr(3-tBu)][dMet(O2)]GF[Ahx]-OMe) was 21%; that for `COC(=O)CCCCCNC(=O)[C@H](Cc1ccccc1)NC(=O)CNC(=O)[C@@H](CCS(C)(=O)=O)NC(=O)[C@H](N)Cc1ccc(O)c(C(C)(C)C)c1` [Example 74, 3-t-butyl-D-tyrosyl-[4-(methylsulfonyl)-D-2-aminobutanoyl]glycyl-N-(6-methoxy-6-oxohexyl)-L-phenylalaninamide monohydrochloride hemihydrate] (H-[dTyr(3-tBu)][dMet(O2)]GF[Ahx]-OMe) was 28%.
Regarding `CC(C)CC(=O)N[C@H](C(=O)N[C@H](C(=O)N[C@@H](CC(C)C)[C@@H](O)CC(=O)N[C@@H](C)C(=O)N[C@@H](CC(C)C)[C@@H](O)CC(=O)O)C(C)C)C(C)C` [Pepstatin] (Isovaleryl-VV[Sta]A[Sta]-OH), the plasma renin activity result in assay [1] (same test conditions) is recorded as “significantly reduced”. Also, the “mean arterial blood pressure” value in assay [1] (test compounds given intra-arterially, pressure read at 5, 10 and 15 minutes after injection) was “significantly reduced”.
As for “O-(2-methylpropoxycarbonyl)-2,3,6-trimethyltyrosyl-[4-(methylsulfinyl)-D-2- aminobutanoyl]glycyl-N-(6-methoxy-6-oxohexyl)-L-phenylalaninamide monohydrochloride sesquihydrate [Example 58]”, the “% Inhibition” value on human renin was determined as 26%.
Consider “O-(2-methylpropoxycarbonyl)-2-methyltyrosyl-D-methionylglycyl-N-(6-methoxy- 6-oxohexyl)-L-phenylalaninamide monohydrochloride hemihydrate [Example 63]”, for which, on human renin, the “% Inhibition” value is recorded as 23%.
On the same count and under the same terms, then “O-(2-methylpropoxycarbonyl)-2-methyltyrosyl-[4-(methylsulfinyl)-D-2-aminobutanoyl]-glycyl-N-(6-methoxy-6-oxohexyl)-L-phenylalaninamide monohydrochloride hemihydrate [Example 64]”, with 22%.
Same read-out and setting: the value for “O-(2-methylpropoxycarbonyl)-3-t-butyltyrosyl-[4-(methylsulfinyl)-D-2-aminobutanoyl]glycyl-N-(6-methoxy-6-oxohexyl)-L-phenylalaninamide monohydrochloride hemihydrate [Example 70]” was 25%.
On to “PHPFHLFVY [Pro-[Phe^6]octapeptide, prolylhistidylprolylphenylalanylhistidylleucylphenylalanylvalyltyrosine, reference compound]”, for which the “activity in the human renin inhibition assay” value on human renin (stated in words) was “active”.
